Experiment [1] addresses carbonic anhydrase II. Also on record: method as in earlier work. Conditions: cited from earlier work.
For experiment [2], the system named is urease. On the set-up: method as in earlier work. As to conditions: cited from earlier work.
The target in experiment [3] is T1, α-glucosidase (Saccharomyces cerevisiae, UniProt P53341). As to the kind of experiment: α-glucosidase inhibition assay (96-well, pNPG substrate, 405 nm). It counts as biochemical. As to conditions: S3 Table; for OD of sample: absorbance at 405 nm; for inhibition at 500 µM (stock): test compound 20 μL of 0.5 mM, read-out: Percentage Inhibition. As to the method: The assay is based on the method given by Pistia-Brueggeman with slight modifications. In a 96-well plate 120 μL of sodium phosphate buffer (pH = 7) was taken and 20 μL of the enzyme (2U/mL) was added. Then 20 μL of test compound (0.5 mM) was added and then incubated for 15 min. at 37 °C. In sequence, substrate pNPG (20 μL, 1mM) was taken in each well, and dissolved in buffer. The reaction mixture was again incubated for 15 min. at 37 °C. The reaction was stopped by the addition of 20 μL of 0.1 mM Na2CO3, so that the final volume reaches 200 μL. The activity of the enzyme was measured spectrophotometrically at 405 nm by measuring the concentration of product formed, using SpectraMax M2 (Molecular Devices CA, USA). Each sample was taken in triplicate and the % inhibition was measured. […]

Experiment [4] deals with T1, α-glucosidase. The experiment is described as follows: Kinetic studies, Line-weaver Burk plot (type of enzyme inhibition). It counts as biochemical. Conditions: Vmax and Km both change with inhibitor concentration. As to the method: The type of enzyme inhibition was determined by using the Line-weaver Burk plot. For this, out of 4 different concentrations of each sample, each concentration is analyzed against 4 different concentrations of substrate ranging from 1 mM to 0.125 mM. The inverse of maximum velocity (1/Vmax), obtained for each concentration, is plotted against the inverse of substrate concentrations (1/[S]) to find out type of enzyme inhibition.

SMILES strings stand for the structures. pIC50: −log10 of the molar value.

T1 sequence (P53341 whole entry): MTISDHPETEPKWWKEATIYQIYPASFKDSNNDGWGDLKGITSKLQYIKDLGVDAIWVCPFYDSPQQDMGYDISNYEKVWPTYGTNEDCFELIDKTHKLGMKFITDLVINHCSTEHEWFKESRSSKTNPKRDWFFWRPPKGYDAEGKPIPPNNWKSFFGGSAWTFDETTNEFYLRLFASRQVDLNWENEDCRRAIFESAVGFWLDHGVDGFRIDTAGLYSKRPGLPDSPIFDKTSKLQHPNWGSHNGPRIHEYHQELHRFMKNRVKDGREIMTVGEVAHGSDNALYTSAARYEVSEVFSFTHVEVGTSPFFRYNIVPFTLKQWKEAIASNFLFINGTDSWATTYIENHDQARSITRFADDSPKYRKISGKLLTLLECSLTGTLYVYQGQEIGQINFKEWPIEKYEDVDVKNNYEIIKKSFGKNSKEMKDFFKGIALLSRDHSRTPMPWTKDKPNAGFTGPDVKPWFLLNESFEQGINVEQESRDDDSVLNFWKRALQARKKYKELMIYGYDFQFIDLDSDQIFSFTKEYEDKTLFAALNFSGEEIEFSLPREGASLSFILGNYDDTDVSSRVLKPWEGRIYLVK

Take `O=C(C1=C(c2ccccc2)NC(=S)NC1c1cccc(O)c1)c1ccccc1` (stereo not drawn) [(4-(3-hydroxyphenyl)-6-phenyl-2-thioxo-1,2,3,4-tetrahydropyrimidin-5-yl)phenyl)methanone]: the pIC50 in experiment [1] is 4.01.

As for `N=C(N)NCCC[C@@H](N)c1nnc(-c2cccs2)o1` [(R)-1-(4-amino-4-(5-(thiophen-2-yl)-1,3,4-oxadiazol-2-yl)butyl)guanidine], the pIC50 in experiment [2] was 4.33.

In turn, `O=[N+]([O-])c1ccc(N/N=C\c2ccc(O)cc2)c([N+](=O)[O-])c1` [compound 5] had an OD of sample in experiment [3] of 0.62.

Regarding `Clc1ccc(-c2nnc(-c3ccc[nH]3)o2)c(Cl)c1` [compound 25, 2-(2,4-dichlorophenyl)-5-(1H-pyrrol-2-yl)-1,3,4-oxadiazole], in experiment [3], the OD of sample turned out to be 0.33 and the inhibition at 500 µM (stock) was found to be 90%. The “mode (type) of enzyme inhibition” value in experiment [4] was “un-competitive”.

`O=C1Oc2ccccc2C(=O)/C1=C/c1ccc(-c2ccccc2)cc1` [compound 54]: in experiment [3], the OD of sample came to 0.39 and the inhibition at 500 µM (stock) worked out at 85.6%.

Turning to `CCCCCCCCCCCCSc1nc2ccccc2n1CC(=O)N/N=C/c1ccc(O)c(OCC)c1` [compound 96], in experiment [3], the OD of sample is recorded as 0.64 and the inhibition at 500 µM (stock) was 80.1%.

Regarding `COc1ccc(S(=O)(=O)N2CCC(c3nnc(SC(C)C(=O)Nc4ccc(C)cc4)n3-c3ccccc3)CC2)cc1` (stereo not drawn) [compound 185], in experiment [3], the OD of sample is 0.49 and the inhibition at 500 µM (stock) came out at 81.9%.

As for `CCSc1nc2ccccc2n1CC(=O)N/N=C/c1ccc(O)cc1O` [compound 228, (E)-N’-(2,4-dihydroxybenzylidene)-2-(2-(ethylthio)-1H-benzo[d]imidazol-1-yl)acetohydrazide], in experiment [3], the OD of sample is reported as 0.30 and the inhibition at 500 µM (stock) was 91.2%. The “mode (type) of enzyme inhibition” value in experiment [4] was “un-competitive”.

Source of the values: article PMC10313066, “In-vitro high-throughput library screening—Kinetics and molecular docking studies of potent inhibitors of α-glucosidase” (PLOS ONE, 2023).
